In the supplement of paper PMC10307832:

Columns and labels:
Test in all cases: relative viability (nuclei count vs DMSO), 5 days (fraction); higher = more cells survive
[1] = system: LCLC-97TM1
Method in brief: (§1)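 Dosing by pin tool came one day after lung cancer cell lines were seeded in 1536-well plates, using either one drug or a fixed anchor-drug dose plus five library-drug doses (not always all listed) in √10 steps. After 5 days, nuclei were counted on 4× images. Relative viability is treated-well nuclei count divided by vehicle-well nuclei count, and values are medians of duplicate plates.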

[2] = system: HCC-827
Method in brief: as §1

[3] = system: NCI-H1437
Method in brief: as §1

[4] = system: NCI-H1666
Method in brief: as §1

[5] = system: NCI-H2087
Method in brief: as §1

[6] = system: NCI-H1975
Method in brief: as §1

[7] = system: HCC-44
Method in brief: as §1

[8] = system: LU99A
Method in brief: as §1

[9] = system: LOU-NH91
Method in brief: as §1

[10] = system: H3255
Method in brief: as §1

[11] = system: COR-L 105
Method in brief: as §1

[12] = system: PC-3 [JPC-3]
Method in brief: as §1

[13] = system: EKVX
Method in brief: as §1

[14] = system: 201T
Method in brief: as §1

[15] = system: NCI-H647
Method in brief: as §1

[16] = system: SW 1573
Method in brief: as §1

[17] = system: EPLC-272H
Method in brief: as §1

[18] = system: NCI-H2170
Method in brief: as §1

[19] = system: BEN
Method in brief: as §1

[20] = system: NCI-H2085
Method in brief: as §1

`CC(=O)O[C@@]12CO[C@@H]1C[C@H](O)[C@@]1(C)C(=O)[C@H](O)C3=C(C)[C@@H](OC(=O)[C@H](O)[C@@H](NC(=O)OC(C)(C)C)c4ccccc4)C[C@@](O)([C@@H](OC(=O)c4ccccc4)[C@H]21)C3(C)C` [Docetaxel] + CC1(C)CCC(c2ccc(Cl)cc2)=C(CN2CCN(c3ccc(C(=O)NS(=O)(=O)c4ccc(N[C@H](CCN5CCOCC5)CSc5ccccc5)c(S(=O)(=O)C(F)(F)F)c4)cc3)CC2)C1 [Navitoclax] (partner 0.5 µM) was tested. Which relative viability ([1]; first compound 0.000632 µM) did it give?
The relative viability was 0.498.

And the relative viability ([1]; first compound 0.002 µM)?
Its relative viability is 0.145.

What about the relative viability ([1]; first compound 0.006325 µM) of the same compound?
Its relative viability is 0.168.

What about the relative viability ([1]; first compound 0.02 µM) of the same compound?
Its relative viability is 0.11.

And the relative viability ([2]; first compound 0.0002 µM)?
Its relative viability is 1.02.

And the relative viability ([2]; first compound 0.000632 µM)?
The relative viability was 1.02.

What about the relative viability ([2]; first compound 0.002 µM) of the same compound?
The relative viability was 0.943.

And the relative viability ([2]; first compound 0.006325 µM)?
The relative viability was 0.334.

What about the relative viability ([2]; first compound 0.02 µM) of the same compound?
The relative viability was 0.252.

And the relative viability ([3]; first compound 0.0002 µM)?
Its relative viability is 1.02.

And the relative viability ([3]; first compound 0.000632 µM)?
Its relative viability is 0.644.

And the relative viability ([3]; first compound 0.002 µM)?
The relative viability was 0.182.

And the relative viability ([3]; first compound 0.02 µM)?
The relative viability was 0.104.

And the relative viability ([4]; first compound 0.0002 µM)?
The relative viability was 0.646.

What about the relative viability ([4]; first compound 0.000632 µM) of the same compound?
The relative viability was 0.565.

What about the relative viability ([4]; first compound 0.002 µM) of the same compound?
The relative viability was 0.354.

What about the relative viability ([4]; first compound 0.006325 µM) of the same compound?
The relative viability was 0.302.

And the relative viability ([4]; first compound 0.02 µM)?
The relative viability was 0.186.

What about the relative viability ([5]; first compound 0.0002 µM) of the same compound?
The relative viability was 0.964.

What about the relative viability ([5]; first compound 0.000632 µM) of the same compound?
Its relative viability is 0.446.

What about the relative viability ([5]; first compound 0.002 µM) of the same compound?
Its relative viability is 0.276.

What about the relative viability ([5]; first compound 0.006325 µM) of the same compound?
The relative viability was 0.154.

What about the relative viability ([5]; first compound 0.02 µM) of the same compound?
The relative viability was 0.129.

What about the relative viability ([6]; first compound 0.0002 µM) of the same compound?
The relative viability was 1.1.

And the relative viability ([6]; first compound 0.000632 µM)?
Its relative viability is 1.11.

What about the relative viability ([6]; first compound 0.002 µM) of the same compound?
The relative viability was 0.276.

What about the relative viability ([6]; first compound 0.006325 µM) of the same compound?
Its relative viability is 0.252.

And the relative viability ([6]; first compound 0.02 µM)?
Its relative viability is 0.156.

What about the relative viability ([7]; first compound 0.0002 µM) of the same compound?
The relative viability was 0.962.

What about the relative viability ([7]; first compound 0.000632 µM) of the same compound?
Its relative viability is 0.934.

And the relative viability ([7]; first compound 0.002 µM)?
The relative viability was 0.362.

What about the relative viability ([7]; first compound 0.006325 µM) of the same compound?
Its relative viability is 0.242.

And the relative viability ([7]; first compound 0.02 µM)?
The relative viability was 0.149.

What about the relative viability ([8]; first compound 0.0002 µM) of the same compound?
Its relative viability is 0.865.

What about the relative viability ([8]; first compound 0.000632 µM) of the same compound?
The relative viability was 0.533.

And the relative viability ([8]; first compound 0.002 µM)?
The relative viability was 0.277.

And the relative viability ([8]; first compound 0.006325 µM)?
The relative viability was 0.201.

And the relative viability ([8]; first compound 0.02 µM)?
The relative viability was 0.148.

What about the relative viability ([9]; first compound 0.0002 µM) of the same compound?
Its relative viability is 0.784.

What about the relative viability ([9]; first compound 0.000632 µM) of the same compound?
The relative viability was 0.512.

And the relative viability ([9]; first compound 0.002 µM)?
Its relative viability is 0.332.

What about the relative viability ([9]; first compound 0.006325 µM) of the same compound?
The relative viability was 0.279.

And the relative viability ([9]; first compound 0.02 µM)?
Its relative viability is 0.222.

And the relative viability ([10]; first compound 0.0002 µM)?
The relative viability was 0.399.

What about the relative viability ([10]; first compound 0.000632 µM) of the same compound?
The relative viability was 0.46.

And the relative viability ([10]; first compound 0.002 µM)?
The relative viability was 0.181.

What about the relative viability ([10]; first compound 0.006325 µM) of the same compound?
The relative viability was 0.141.

What about the relative viability ([10]; first compound 0.02 µM) of the same compound?
Its relative viability is 0.102.

What about the relative viability ([11]; first compound 0.0002 µM) of the same compound?
The relative viability was 0.94.

What about the relative viability ([11]; first compound 0.000632 µM) of the same compound?
The relative viability was 0.715.

What about the relative viability ([11]; first compound 0.002 µM) of the same compound?
Its relative viability is 0.343.

And the relative viability ([11]; first compound 0.006325 µM)?
Its relative viability is 0.367.

What about the relative viability ([11]; first compound 0.02 µM) of the same compound?
Its relative viability is 0.26.

And the relative viability ([12]; first compound 0.0002 µM)?
The relative viability was 0.82.

What about the relative viability ([12]; first compound 0.000632 µM) of the same compound?
Its relative viability is 0.721.

What about the relative viability ([12]; first compound 0.002 µM) of the same compound?
The relative viability was 0.527.

What about the relative viability ([12]; first compound 0.006325 µM) of the same compound?
Its relative viability is 0.229.

What about the relative viability ([12]; first compound 0.02 µM) of the same compound?
Its relative viability is 0.202.

What about the relative viability ([13]; first compound 0.0002 µM) of the same compound?
Its relative viability is 0.918.

And the relative viability ([13]; first compound 0.000632 µM)?
Its relative viability is 0.847.

And the relative viability ([13]; first compound 0.002 µM)?
The relative viability was 0.37.

What about the relative viability ([13]; first compound 0.006325 µM) of the same compound?
The relative viability was 0.196.

And the relative viability ([13]; first compound 0.02 µM)?
The relative viability was 0.123.

And the relative viability ([14]; first compound 0.0002 µM)?
Its relative viability is 1.18.

And the relative viability ([14]; first compound 0.000632 µM)?
The relative viability was 1.21.

What about the relative viability ([14]; first compound 0.002 µM) of the same compound?
The relative viability was 1.06.

And the relative viability ([14]; first compound 0.006325 µM)?
The relative viability was 0.507.

What about the relative viability ([14]; first compound 0.02 µM) of the same compound?
The relative viability was 0.347.

And the relative viability ([15]; first compound 0.0002 µM)?
Its relative viability is 1.21.

What about the relative viability ([15]; first compound 0.000632 µM) of the same compound?
Its relative viability is 0.597.

What about the relative viability ([15]; first compound 0.002 µM) of the same compound?
Its relative viability is 0.245.

What about the relative viability ([15]; first compound 0.006325 µM) of the same compound?
The relative viability was 0.125.

What about the relative viability ([15]; first compound 0.02 µM) of the same compound?
The relative viability was 0.0526.

What about the relative viability ([16]; first compound 0.0002 µM) of the same compound?
The relative viability was 1.06.

What about the relative viability ([16]; first compound 0.000632 µM) of the same compound?
The relative viability was 0.204.

And the relative viability ([16]; first compound 0.002 µM)?
The relative viability was 0.15.

And the relative viability ([16]; first compound 0.006325 µM)?
The relative viability was 0.0763.

What about the relative viability ([16]; first compound 0.02 µM) of the same compound?
The relative viability was 0.0456.

And the relative viability ([17]; first compound 0.0002 µM)?
Its relative viability is 1.12.

What about the relative viability ([17]; first compound 0.000632 µM) of the same compound?
Its relative viability is 0.889.

And the relative viability ([17]; first compound 0.002 µM)?
Its relative viability is 0.374.

And the relative viability ([17]; first compound 0.006325 µM)?
The relative viability was 0.126.

What about the relative viability ([17]; first compound 0.02 µM) of the same compound?
The relative viability was 0.0732.

What about the relative viability ([18]; first compound 0.0002 µM) of the same compound?
The relative viability was 0.569.

What about the relative viability ([18]; first compound 0.000632 µM) of the same compound?
The relative viability was 0.49.

And the relative viability ([18]; first compound 0.002 µM)?
Its relative viability is 0.237.

What about the relative viability ([18]; first compound 0.006325 µM) of the same compound?
The relative viability was 0.213.

And the relative viability ([18]; first compound 0.02 µM)?
The relative viability was 0.15.

And the relative viability ([19]; first compound 0.0002 µM)?
The relative viability was 0.0647.

And the relative viability ([19]; first compound 0.000632 µM)?
The relative viability was 0.25.

And the relative viability ([19]; first compound 0.002 µM)?
The relative viability was 0.0618.

And the relative viability ([19]; first compound 0.006325 µM)?
The relative viability was 0.0423.

What about the relative viability ([19]; first compound 0.02 µM) of the same compound?
The relative viability was 0.0454.

And the relative viability ([20]; first compound 0.0002 µM)?
The relative viability was 1.05.

And the relative viability ([20]; first compound 0.000632 µM)?
Its relative viability is 1.03.

And the relative viability ([20]; first compound 0.002 µM)?
Its relative viability is 0.68.

What about the relative viability ([20]; first compound 0.006325 µM) of the same compound?
The relative viability was 0.476.

And the relative viability ([20]; first compound 0.02 µM)?
The relative viability was 0.232.
